A short description of data set [1]: Pharmacokinetic study in rats after oral administration of TC extracts (UPLC-MS/MS of plasma). To be noted: male, Sprague-Dawley, rat, plasma, po, 10 g/kg.
Method: UPLC-MS/MS system was used for analysis and monitoring, which consisted primarily of an Agilent 1290 UPLC system (Agilent Technologies, Germany) and an Agilent 6,470 series triple quad (TQ) mass spectrometer (MS) (Agilent Technologies, Singapore) equipped with an electrospray ionization source.
Separation was carried out on an ACQUITY UPLC® HSS T3 column (2.1 × 100 mm, 1.8 μm), and temperature in the column was kept at 20°C. In the mobile phase, 0.1% formic acid in water and acetonitrile were used as solvents A and B, respectively. Gradient elution was performed as follows: 1%–5% B at 0–3 min; 5%–30% B at 3–4 min; 30%–40% B at 4–8 min; 40%–100% B at 8–9 min; 100%–100% B at 9–12 min. The flow rate was set at 0.3 ml/min and the injection volume was 10 μL.
Multiple reaction monitoring (MRM) was used for quantitative analysis in negative (−) ionization mode. The mass spectrometric parameters were set as follows: drying gas (N2) temperature was 300°C; gas (N2) flow rate was 7 L/min; atomizer pressure was 35 psi; sheath gas flow was 11 L/min and capillary voltage was 3800 V. The specific mass spectrometric parameters of the precursor ion, product ion, fragmentor, collision energy, and ion modes of the nine compounds and IS are shown in Table 1.
The plasma sample (100 μl) was sequentially spiked with 20 μl IS solutions (caffeic acid, 1,000 ng/ml); 20 μL methanol, and 10 μl formic acid, then vortex-mixed for 1 min. The mixture was precipitated protein with 1,000 μl methanol by vortex mixing for 3 min. The supernatant was collected into a 1.5 ml clean centrifuge tube after centrifugation at for 10 min 14,000 rpm, and evaporated under a nitrogen stream until dry. After that, the residue was redissolved in 100 μl methanol, vortex-mixed for 3 min, then centrifuged for 10 min at 14,000 rpm. 10 μl analyte was injected into the UPLC-MS/MS system.
In this study, six of male rats were used, given free access to water, and fasted for 12 h before the experimental period. The TC extracts were dissolved in 0.5% CMC-Na aqueous solution as a suspension at a concentration of 1 g/ml. A dose of 10 g/kg of the suspension was administered to the rats orally, the blood samples of approximately 300 μL were drawn from the fundus venous plexus of rats pre- and post-oral administration at 0.00, 0.08, 0.17, 0.25, 0.50, 0.75, 1, 2, 4, 6, 8, 10, 12, 24, 36, 48, 60, 72, 84, 96, 120, 144 and 168 h, respectively. For analysis, the plasma supernatants collected from the centrifuged plasma were frozen at −80°C after centrifugation for 10 min at 6,000 rpm.
Data were expressed as mean ± standard deviation (mean ± SD). MassHunter Workstation software (version B.09.00) was quantitatively used to calculate the plasma concentrations of nine analytes. To evaluate the specific pharmacokinetic parameters, DAS Software (DAS 3.0, Medical College of Wannan, China) was used to process the pharmacokinetic results.
The next data set deals with HepG2 cells. More on the design: method as in Achari et al., 2011. To be noted: 50 μM; ref Achari et al., 2011; cited from earlier work.
A short description of data set [2]: Stability of QC samples of the analytes in rat plasma under storage conditions. The data set is classed as physicochemical. To be noted: n = 6. Here is the method: Preparation of quality control (QC) samples with three concentrations (low, medium, and high) of 16, 160, and 3,200 ng/ml for ellagic acid; 1.6, 16, 320 ng/ml for protocatechuic acid, ethyl gallate and 1,2,3,4,6-O-pentagalloylglucose; 40, 400 and 8,000 ng/ml for chebulic acid, gallic acid, corilagin and chebulinic acid and 160, 1,600, 32000 ng/ml for chebulagic acid. Both QC samples and stock solutions were stored in a refrigerator at 4°C.
Under variable treatment conditions: stored for 12 h at auto-sampler, for 4 hours at room temperature, under three freeze-thaw cycles, and kept at −80°C for 7 days, quality control samples were analyzed to assess the stability of the nine analytes in plasma.

Details of data set [3]: method as in Mishra et al., 2013. To be noted: dose of 40 mg/kg; ref Mishra et al., 2013; cited from earlier work.

The values that follow come from article PMC9880438, “Pharmacokinetics of active compounds of a Terminalia chebula Retz. Ethanolic extract after oral administration rats using UPLC-MS/MS” (Frontiers in Pharmacology, 2023).

`O=C(O)C[C@@H]1C(=O)O[C@H]2[C@@H]3OC(=O)c4cc(O)c(O)c(O)c4-c4c(cc(O)c(O)c4O)C(=O)OC[C@H]2O[C@@H](OC(=O)c2cc(O)c(O)c(O)c2)[C@@H]3OC(=O)c2cc(O)c(O)c3c2[C@H]1[C@H](O)C(=O)O3` [Chebulagic acid, chebulagic acid]: the AUC (in general, concentration integrated over time) in data set [1] was found to be 231 ± 64.6 µg·h/mL. Further, in data set [1], the total exposure AUC(0-inf) (commonly the area under the concentration-time curve extrapolated to infinity) was found to be 234 ± 65.7 µg·h/mL. The maximum concentration (Cmax) (as a rule, the maximum level reached in the sampled fluid or tissue) in data set [1] was 4980 ng/mL. Besides, in data set [1], the mean residence time (MRT) – broadly, a mean duration of stay, worked out from the concentration-time curve – was found to be 49.8 ± 4.87 h. Moreover, in data set [1], the mean residence time (MRT inf) (as a rule, the average time that molecules of a dose stay in the body) was 51.8 ± 5.3 h. In addition, the Tmax (usually the time at which the peak concentration occurs) in data set [1] was 5.67 ± 3.67 h. Besides, the half-life – broadly, how long it takes for the measured level to halve – in data set [1] was 1200 ± 151 min. Also, in the data set with HepG2 cells, the “Sensitivity of HepG2 cells towards Dox induced cytotoxicity” value is listed as “increased the sensitivity”. Besides, the “Measured concentration after storage” value was 145.5 ± 16.4 ng/mL in data set [2] (spiked 160 ng/mL, autosampler for 12 h); 160.8 ± 6.2 ng/mL in data set [2] (spiked 160 ng/mL, room temperature for 4 h); 167.9 ± 7.8 ng/mL in data set [2] (spiked 160 ng/mL, three freeze-thaw cycles); 168.0 ± 4.2 ng/mL in data set [2] (spiked 160 ng/mL, −80°C for 7 days); 1,448.9 ± 70.5 ng/mL in data set [2] (spiked 1,600 ng/mL, autosampler for 12 h); 1,465.3 ± 158.2 ng/mL in data set [2] (spiked 1,600 ng/mL, room temperature for 4 h). Besides, the “Measured concentration after storage” value was 1,391.9 ± 61.5 ng/mL in data set [2] (spiked 1,600 ng/mL, three freeze-thaw cycles); 1,512.8 ± 65.1 ng/mL in data set [2] (spiked 1,600 ng/mL, −80°C for 7 days); 34277.3 ± 2,721.2 ng/mL in data set [2] (spiked 32000 ng/mL, autosampler for 12 h); 31970.0 ± 1,256.3 ng/mL in data set [2] (spiked 32000 ng/mL, room temperature for 4 h); 33770.8 ± 3,365.5 ng/mL in data set [2] (spiked 32000 ng/mL, three freeze-thaw cycles); 31615.2 ± 953.8 ng/mL in data set [2] (spiked 32000 ng/mL, −80°C for 7 days).
As for `O=C(O)C[C@@H]1C(=O)O[C@H]2[C@H](OC(=O)c3cc(O)c(O)c(O)c3)[C@@H](OC(=O)c3cc(O)c(O)c4c3[C@H]1[C@H](O)C(=O)O4)[C@H](OC(=O)c1cc(O)c(O)c(O)c1)O[C@@H]2COC(=O)c1cc(O)c(O)c(O)c1` [Chebulinic acid, chebulinic acid], in data set [1], the AUC was 38.2 ± 16.3 µg·h/mL. This molecule gave an AUC(0-inf) in data set [1] of 41.9 ± 15.8 µg·h/mL. Besides, the highest level in data set [1] (Cmax) was 853 ± 433 ng/mL. The molecule further showed an MRT in data set [1] of 58.2 ± 5.63 h. Also, the MRT inf in data set [1] was found to be 76 ± 15.3 h. The Tmax in data set [1] worked out at 1.83 ± 0.41 h. Besides, the half-life in data set [1] is 2600 ± 792 min. Further, the Anti-gastric ulcer effect entry in data set [3] is reported as “good anti-gastric ulcer effect”. Also, the “Measured concentration after storage” value in data set [2] (spiked 40 ng/mL, autosampler for 12 h) is on record as 42.2 ± 5.1 ng/mL; in data set [2] (spiked 40 ng/mL, room temperature for 4 h), 36.8 ± 3.9 ng/mL; in data set [2] (spiked 40 ng/mL, three freeze-thaw cycles), 41.8 ± 2.3 ng/mL; in data set [2] (spiked 40 ng/mL, −80°C for 7 days), 47.1 ± 1.6 ng/mL; in data set [2] (spiked 400 ng/mL, autosampler for 12 h) it was 359.7 ± 18.1 ng/mL; in data set [2] (spiked 400 ng/mL, room temperature for 4 h), 414.3 ± 21.9 ng/mL. The “Measured concentration after storage” value in data set [2] (spiked 400 ng/mL, three freeze-thaw cycles) is 378.1 ± 29.2 ng/mL; in data set [2] (spiked 400 ng/mL, −80°C for 7 days), 373.5 ± 23.6 ng/mL; in data set [2] (spiked 8,000 ng/mL, autosampler for 12 h), 7,174.2 ± 321.2 ng/mL; in data set [2] (spiked 8,000 ng/mL, room temperature for 4 h), 8,592.3 ± 543.8 ng/mL; in data set [2] (spiked 8,000 ng/mL, three freeze-thaw cycles), 8,447.4 ± 574.6 ng/mL; in data set [2] (spiked 8,000 ng/mL, −80°C for 7 days), 8,787.4 ± 801 ng/mL.
